Where a name gives a salt, the structure may show the parent alone. Marks after values point to notes of the source that are not given here.
Assays:
[1] = system: individuals with mild to moderate Alzheimer's disease; details: cited from earlier work
[2] = cited from earlier work
[3] = system: AAMU-Ab; experiment: Competitive antigen ELISA, cross-reactivity of AAMU-Ab; type: binding, rabbit; details: 0 = absence of inhibition or inhibition no higher than 40% at 5×10^−3 M
Protocol: Buffers and water without additives are filtered through millipore filters and kept for 1 week. BSA, antibodies, Tween™ 20 and horse radish peroxidase conjugates are added to these buffers and water just prior to use. Urine samples are usually collected 4 hours after drinking a cup of coffee (instant or brewed with approximately 100 mg of caffeine per cup) and stored at −80° C. The urine samples are diluted 10 times with sodium phosphate buffer (620 mosm, pH 7.50) and are subsequently diluted with water to give concentrations of AAMU and 1X no higher than 3×10^−6 M in the ELISA. All the pipettings are done with an eight-channel pipette, except those of the antibody and sample solutions. Starting with the last well, 100 μL of a carbonate buffer (100 mM, pH 9.6) containing 2.5 μg mL^−1 antibodies are added to each well. After 90 min. at room temperature, the wells are washed three times with 100 mL of TPB: isotonic sodium phosphate buffer (310 mosm, pH 7.50) containing 0.05% Tween™ 20.
After the initial wash, unoccupied sites are blocked by incubation for 90 min. at room temperature with 100 μL TBP containing 3% BSA. The wells are washed four times with 100 μL TPB. […] The microplate is gently shaken with an orbital shaker at room temperature for 3-4 hours. The wells are washed three times with 100 μL TPB containing 1% BSA and three times with water containing 0.05% Tween™ 20. […]

COc1cc2c(cc1OC)C(=O)C(CC1CCN(Cc3ccccc3)CC1)C2 (racemic) [Donepezil, (±)-2,3-dihydro-5,6-dimethoxy-2-[[1-(phenylmethyl)-4-piperidinyl]methyl] -1H-inden-1-onehydrochloride]
effect size on the ADAS-Cog vs placebo ([1]; 5 mg or 10 mg per day, over 24 weeks): about 3 points

COc1cc2c(cc1O)C(=O)C(CC1CCN(Cc3ccccc3)CC1)C2 (stereo not drawn) [6-O-desmethyl donepezil]
plasma radioactivity, expressed as a percent of the administered dose ([2]; 14C-labeled donepezil): 11%
plasma concentration relative to donepezil ([2]; in vivo): about 20%

Nc1c2c(nc3ccccc13)CCCC2 [Tacrine]
improvement in cognitive function on the ADAS-Cog ([1]; 40 mg four times daily, over 12 weeks): about 2 points
persons who had to discontinue the drug due to side effects ([1]; human, in vivo): up to half

O=c1[nH]c(=O)c2[nH]cnc2[nH]1 [Xanthine]
% Cross-Reaction AAMU-Ab [3]: 0^a %
